This passage reports EC50 results from patent US9000016B2, “1,3,4-Oxadiazoles-2-thio derivatives as sphingosine-1 phosphate receptors modulators” (Allergan, Inc., priority 2012, dated 2015).

For this experiment, the target named is T1, human S1P1 receptor (Homo sapiens, UniProt P21453).
T1 construct: expressed in transfected cells; membranes used
The experiment can be described thus: GTP γ35S binding assay for S1P1 activity. The class given is biochemical. As to conditions: membranes of cells stably expressing the S1P1 receptor, agonist potency. Here is the method: Compounds were synthesized and tested for S1P1 activity using the GTP γ^35S binding assay. These compounds may be assessed for their ability to activate or block activation of the human S1P1 receptor in cells stably expressing the S1P1 receptor.
GTP y^35S binding was measured in the medium containing (mM) HEPES 25, pH 7.4, MgCl210, NaCI 100, dithiothreitol 0.5, digitonin 0.003%, 0.2 nM GTP y^35S, and 5 µg membrane protein in a volume of 150 μl. Test compounds were included in the concentration range from 0.08 to 5,000 nM unless indicated otherwise. Membranes were incubated with 100 μM 5′-adenylylimidodiphosphate for 30 min, and subsequently with 10 μM GDP for 10 min on ice. Drug solutions and membrane were mixed, and then reactions were initiated by adding GTP y^35S and continued for 30 min at 25° C. Reaction mixtures were filtered over Whatman GF/B filters under vacuum, and washed three times with 3 mL of ice-cold buffer (HEPES 25, pH7.4, MgCl210 and NaCI 100). Filters were dried and mixed with scintillant, and counted for ^35S activity using a β-counter. Agonist-induced GTP y^35S binding was obtained by subtracting that in the absence of agonist. Binding data were analyzed using a non-linear regression method. In case of antagonist assay, the reaction mixture contained 10 nM S1 P1 in the presence of test antagonist at concentrations ranging from 0.08 to 5000 nM.

T1 sequence (P21453 whole entry): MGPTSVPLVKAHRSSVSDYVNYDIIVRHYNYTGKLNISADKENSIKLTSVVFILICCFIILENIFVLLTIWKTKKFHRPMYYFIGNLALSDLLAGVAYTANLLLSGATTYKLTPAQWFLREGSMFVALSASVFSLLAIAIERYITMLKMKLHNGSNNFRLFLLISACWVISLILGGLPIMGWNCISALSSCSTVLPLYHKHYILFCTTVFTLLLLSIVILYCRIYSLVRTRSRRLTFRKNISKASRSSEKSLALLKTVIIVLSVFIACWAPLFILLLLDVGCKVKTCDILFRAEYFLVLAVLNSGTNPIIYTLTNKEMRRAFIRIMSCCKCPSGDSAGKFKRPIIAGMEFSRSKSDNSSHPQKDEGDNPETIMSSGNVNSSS

For `Cc1ccc(-c2nnc(SC(C)c3ccc(CNCCCP(=O)(O)O)cc3)o2)cc1C` (centres unmarked) [Compound 1, (3-{[4-(1-{[5-(3,4-Dimethylphenyl)-1,3,4-oxadiazol-2-yl]thio}ethyl)benzyl]amino}propyl)phosphonic acid], a half-maximal effect (EC50) was put at 0.082 µM.

As to `Cc1ccc(-c2nnc(SC(C)c3ccc(CNCCC(=O)O)cc3)o2)cc1C` (centres unmarked) [Compound 3, 3-{[4-(1-{[5-(3,4-Dimethylphenyl)-1,3,4-oxadiazol-2-yl]thio}ethyl)benzyl]amino}propanoic acid], a half-maximal response (EC50) required 0.0084 µM.
